Data published in ChEMBL document CHEMBL4219106, “Discovery and optimization of tetrahydropyrido[4,3-d]pyrimidine derivatives as novel ATX and EGFR dual inhibitors” (Bioorg Med Chem, 2018).
pIC50: −log10 of the molar value. Calls of active or inactive are those of the source. No cut-off for these calls is given here.

What was measured:
A549 = assay: Cytotoxicity against human A549 cells assessed as reduction in cell viability after 72 hrs by MTT assay; type: functional, cell-based; settings: A549, 72 h
[1] = Cytotoxicity against human SGC cells assessed as reduction in cell viability after 72 hrs by MTT assay; type: functional, cell-based
MKN-45 = assay: Cytotoxicity against human MKN45 cells assessed as reduction in cell viability after 72 hrs by MTT assay; type: functional, cell-based; settings: MKN-45, 72 h
NCI-H1975 = assay: Cytotoxicity against human NCI-H1975 cells assessed as reduction in cell viability after 72 hrs by MTT assay; type: functional, cell-based; settings: NCI-H1975, 72 h
RAW264.7 [2] = assay: Anti-inflammatory activity in mouse RAW264.7 cells assessed as inhibition of LPS-induced NO production by measuring NO level at 10 ug/ml preincubated for 1 hr followed by LPS-stimulation measured after 24 hrs by Griess assay; type: functional
RAW264.7 [3] = assay: Anti-inflammatory activity in mouse RAW264.7 cells assessed as inhibition of LPS-induced NO production by measuring NO level at 5 ug/ml preincubated for 1 hr followed by LPS-stimulation measured after 24 hrs by Griess assay; type: functional
RAW264.7 [4] = assay: Anti-inflammatory activity in mouse RAW264.7 cells assessed as inhibition of LPS-induced NO production by measuring NO level at 2.5 ug/ml preincubated for 1 hr followed by LPS-stimulation measured after 24 hrs by Griess assay; type: functional
[5] = Antifibrotic activity against Wistar rat cardiac fibroblasts assessed as inhibition of cell proliferation at 20 uM after 12 hrs by MTT assay relative to control; type: functional

Row | SMILES | pIC50 (A549) | pIC50 [1] | pIC50 (MKN-45) | pIC50 (NCI-H1975) | inhibition (RAW264.7 [2]) | inhibition (RAW264.7 [3]) | inhibition (RAW264.7 [4]) | Activity (RAW264.7 [2]) | inhibition at 20 µM [5]
1 | O=C(N/N=C/c1cccnc1)N1CCc2ncnc(Nc3cccc(Br)c3)c2C1 | 4.14 | < 3.70 | < 3.70 | < 3.70 | – | – | – | – | –
2 | N#Cc1ccc(/C=N/NC(=O)N2CCc3ncnc(Nc4ccc(F)c(Cl)c4)c3C2)cc1 | 4.37 | 4.45 | 4.28 | 4.17 | – | – | – | – | –
3 | O=C(N/N=C/c1cccc(Br)c1)N1CCc2ncnc(Nc3cccc(Br)c3)c2C1 | – | – | – | – | Active | Active | Active | – | –
4 | O=C(N/N=C/c1ccc(F)cc1)N1CCc2ncnc(Nc3cccc(Br)c3)c2C1 | 5.64 | 5.75 | 5.60 | 4.42 | Active | Active | Active | – | –
5 | O=C(N/N=C/c1ccccc1)N1CCc2ncnc(Nc3cccc(Br)c3)c2C1 | 4.64 | 4.78 | 4.65 | 4.42 | – | – | – | <1.9 µM | –
6 | O=C(N/N=C/c1ccc(C(F)(F)F)cc1)N1CCc2ncnc(Nc3cccc(C(F)(F)F)c3)c2C1 | – | – | – | – | – | – | – | – | 65 to 83%
7 | O=C(N/N=C/c1ccc(Br)cc1)N1CCc2ncnc(Nc3cccc(C(F)(F)F)c3)c2C1 | 4.94 | 4.78 | 4.94 | 4.21 | – | – | – | – | 65 to 83%
8 | CSc1ccc(/C=N/NC(=O)N2CCc3ncnc(Nc4ccc(F)c(Cl)c4)c3C2)cc1 | – | – | – | – | – | – | – | <1.9 µM | 65 to 83%
9 | O=C(N/N=C/c1cccs1)N1CCc2ncnc(Nc3cccc(Br)c3)c2C1 | 4.30 | < 3.70 | < 3.70 | 3.92 | – | – | – | <1.9 µM | 65 to 83%
10 | O=C(N/N=C/c1ccc(F)cc1)N1CCc2ncnc(Nc3ccc(F)c(Cl)c3)c2C1 | 4.94 | 4.77 | 4.96 | 4.19 | – | – | – | – | –
11 | Cc1ccc(/C=N/NC(=O)N2CCc3ncnc(Nc4ccc(F)c(Cl)c4)c3C2)cc1C | 4.81 | 4.94 | 4.74 | 5.17 | – | – | – | – | –
12 | O=C(N/N=C/c1ccc(Br)cc1)N1CCc2ncnc(Nc3cccc(Br)c3)c2C1 | 5.18 | 5.16 | 4.63 | 4.29 | Active | Active | Active | – | 65 to 83%
